Reference: patent US20130281409A1, “Myelin Sheath Fatty Acids that Resolve Neuroinflammation” (priority 2012, published 2013)
“Also recorded” adds a separate entry of the source.

Tests used:
[1] = test system: EAE in PLP139-151-immunized SJL/J mice; test: EAE, lipid or palmitic-acid treatment of established disease; format: in vivo, mouse
Protocol: Animal experiments were approved by, and performed in compliance with, the National Institute of Health guidelines of the Institutional Animal Care and Use Committee at Stanford University. For induction of EAE, 8- to 12-week-old female SJL/J mice (Jackson Laboratory) were immunized subcutaneously with 100 μg of PLP139-151 emulsified in CFA (Difco Laboratories). Lipid and palmitic-acid treatment: Administration of lipid, palmitic acid, or vehicle was initiated once the PLP139-151-immunized mice developed paralysis (representing clinical EAE) and repeated every other day, for a total of ten separate injections. 100 μg of POPS, PGPC, azPC ester, azPC, palmitic acid, or vehicle (0.05% Tween-20 in PBS) was administered in 0.2 ml intravenously in the tail. EAE treatment with lipid: 100 μg of PGPC or sphingomyelin or vehicle ([…] Tween-20 in PBS) was administered in 0.2 ml intravenously in the tail. Treatment with lipid or vehicle was initiated once the PLP139-151-immunized mice developed paralysis (representing clinical EAE) and repeated 3, 6, 12, and 18 days later, for a total of five separate injections.

RAW 264.7 cells [2] = test: Apoptosis of LPS-stimulated RAW 264.7 macrophage cells; format: cell-based, mouse; settings: 30 μg/ml lipid, 100 ng/ml LPS, 48 hours
Protocol: LPS-stimulated RAW 264.7 mouse macrophage cells: 1×10^5 cells/ml of RAW 264.7 cells were stimulated with 100 ng/ml of lipopolysaccharide (LPS) in the presence of 30 μg/ml of POPS, PGPC, azPC ester, or azPC. Cells were stained according to standard protocols, run on a FACScan flow cytometer (BD Biosciences), and analysed with CellQuest software (BD Immunocytometry Systems) or with FlowJo software version 6.3.2 (Tree Star, Inc.).

[3] = test system: MBPAc1-11-TCR transgenic splenocytes; test: MBPAc1-11-specific T-cell proliferation (3H-thymidine incorporation); format: cell-based, mouse; settings: 30 μg/ml lipid, 2 μg/ml MBPAc1-11
Protocol: Splenocytes were harvested from mice transgenic for the MBPAc1-11-specific T-cell receptor and stimulated with 2 μg/ml of MBPAc1-11 in the presence of 30 μg/ml of lipid. Lymph nodes and spleens were also harvested from naive C57BL/6 mice, and CD3^+ T-cell enrichment columns (R&D systems) were used to isolate CD3^+ T cells. The purified CD3^+ T cells were stimulated with 5 μg/ml of plate-bound anti-CD3 antibodies and anti-CD28 antibodies in the presence of 30 μg/ml of POPS, PGPC, azPC ester, brain sulfatides, or azPC, 0.25 mM palmitic acid, or 100% ethanol (as the vehicle control). For assessment of proliferation, 1 μCi of ^3H-thymidine was added to each well for the final 18-24 hours of culture, and incorporation of radioactivity was measured by using a Betaplate scintillation counter. Cytokine assays were performed on culture supernatants after 24 (IL-12p40) or 48 hours (IFN-γ, IL-6, and TNF) of culture by using the BD OptEIA™ Mouse ELISA kits (BD Biosciences).
5×10^6 cells/ml were stimulated in vitro with 2 μg/ml of MBPAc1-11 in the presence of various concentrations of palmitic acid (Sigma), other lipids, or 100% Ethanol (vehicle alone).
For assessment of proliferation, 1 μCi of ^3H-thymidine was added to each well for the final 18 hours of culture, and incorporation of radioactivity was quantified using a Betaplate scintillation counter.

RAW 264.7 cells [4] = test: Proliferation of LPS-stimulated RAW 264.7 macrophage cells; format: cell-based, mouse; settings: 30 μg/ml lipid, 100 ng/ml LPS, 48 hours
Protocol: LPS-stimulated RAW 264.7 mouse macrophage cells: 1×10^5 cells/ml of RAW 264.7 cells were stimulated with 100 ng/ml of lipopolysaccharide (LPS) in the presence of 30 μg/ml of POPS, PGPC, azPC ester, or azPC.

[5] = test system: NF-κB and ERK pathways, Bcl-2 family proteins; test: Immunoblot of inflammatory, survival and apoptotic signaling in anti-CD3/anti-CD28-stimulated T cells; format: cell-based, mouse; settings: 30 μg/ml lipid, 15 min or 24 h
Protocol: CD3^+ T cells were isolated from the lymph nodes of naïve C57BL/6 mice by using CD3^+ T-cell enrichment columns (R&D systems). […] Cells were washed with ice-cold PBS and lysed in RIPA lysis buffer containing 1X Halt protease and phosphatase inhibitor cocktail (Pierce) with a Dounce homogenizer. Immunoblotting was performed with antibodies against phospho-Bim ([…]), phospho-Bad ([…]), phospho-Bcl-2 ([…]), phospho-IKKα/β (serines 180/181), phospho-p65 ([…]), phospho-ERK1/2 […]), and IκBα from Cell Signaling Technology.

[6] = test system: splenocytes from PLP139-151-immunized SJL mice; test: PLP139-151-induced cytokine production by splenocytes of PLP139-151-immunized mice; format: cell-based, mouse; settings: 30 μg/ml lipid, 48 hours
Protocol: PLP-stimulated cells from PLP139-151-immunized mice administered PGPC prophylactically: SJL/J mice were co-injected with PGPC and PLP139-151 in CFA and sacrificed 48 days later. Lymph node cells and splenocytes were then harvested and re-stimulated in vitro (2.5×10^6 cells/ml) with 10 μg/ml of PLP139-151 or with media alone. PLP-stimulated cells from untreated PLP139-151-immunized mice: SJL/J mice were immunized with PLP139-151 in CFA and sacrificed 10 days later. Splenocytes were then harvested and re-stimulated in vitro (at 5×10^5 cells/ml) with 10 μg/ml of PLP139-151 in the presence of 30 μg/ml of POPS, PGPC, azPC ester, or azPC. Cytokine production by cells from the lymph nodes and spleens of PGPC co-immunized mice was measured after 66 hours of stimulation by using the BD OptEIA™ Mouse IFN-γ ELISA kit (BD Biosciences). Cytokine assays for the anti-CD3/anti-CD28 antibody-stimulated T cells and PLP139-151-stimulated splenocytes were performed on culture supernatants after 48 hours of stimulation using the BD OptEIA™ Mouse IL-6, IFN-γ, and TNF alpha ELISA kits (BD Biosciences) and the Mouse IL-17 DuoSet ELISA Development kit (R&D Systems).

[7] = 100 μg i.v. once paralysis developed, every other day, ten injections

| Compound | EAE severity, established disease ([1]; 100 μg i.v. from disease onset (10 days after immunization), five injections) | EAE severity, established disease [1, 7] | apoptosis of LPS-activated RAW 264.7 cells (RAW 264.7 cells [2]) | T-cell proliferation in response to MBPAc1-11 [3] | proliferation of LPS-activated RAW 264.7 cells (RAW 264.7 cells [4]) | CD3/CD28-induced activation of the NF-κB and ERK pathways [5] | CD3/CD28-induced phosphorylation of Bim (serine 69) and Bad (serine 112) [5] | PLP139-151-induced cytokine production (IL-17, IL-6, IFN-γ, TNF) [6] |
| --- | --- | --- | --- | --- | --- | --- | --- | --- |
| CCCCCCCCCCCCCCCC(=O)OC[C@H](COP(=O)([O-])OCC[N+](C)(C)C)OC(=O)CCCC(=O)O [PGPC, 1-Palmitoyl-2-Glutaroyl-sn-Glycero-3-Phosphocholine] | attenuated EAE that was already established | ameliorate established EAE | induce apoptosis | reduced T-cell proliferation | suppress proliferation | suppressed the CD3/CD28-induced activation | suppressed the CD3/CD28-induced phosphorylation | suppress |
| CCCCCCCC/C=C\CCCCCCCC(=O)O[C@H](COC(=O)CCCCCCCCCCCCCCC)COP(=O)(O)OC[C@H](N)C(=O)O [POPS, 1-Palmitoyl-2-Oleoyl-sn-Glycero-3-[Phospho-L-Serine]] | – | ameliorate established EAE | induce apoptosis | reduced T-cell proliferation | suppress proliferation | suppressed the CD3/CD28-induced activation | suppressed the CD3/CD28-induced phosphorylation | suppress |
| CCCCCCCCCCCCCCCC(=O)OC[C@H](COP(=O)([O-])OCC[N+](C)(C)C)OC(=O)CCCCCCCC(=O)O [azPC, 1-Palmitoyl-2-Azelaoyl-sn-Glycero-3-Phosphocholine] | – | ameliorate established EAE | increased apoptosis; also recorded: induce apoptosis | reduced T-cell proliferation | suppressed proliferation; also recorded: suppress proliferation | suppressed the CD3/CD28-induced activation | suppressed the CD3/CD28-induced phosphorylation | suppress |
